From the NIST ThermoML archive (doi:10.1016/j.fluid.2008.03.004)

Test: xn = mol fraction of the nth substance listed
Conditions: 101 kPa, Liquid; for speed of sound: Sing-around technique in a fixed-path interferometer

Cc1cccc(C)c1 [1,3-dimethylbenzene] + COC(C)(C)C
Conditions | mass density [kg/m3] | speed of sound [m/s]
305.65 K, x2 = 0 | 853.441 | –
305.65 K, x2 = 0.047 | 848.1 | –
305.65 K, x2 = 0.115 | 840.172 | –
305.65 K, x2 = 0.212 | 828.758 | –
305.65 K, x2 = 0.304 | 817.815 | –
305.65 K, x2 = 0.399 | 806.139 | –
305.65 K, x2 = 0.5 | 793.525 | –
305.65 K, x2 = 0.601 | 780.692 | –
305.65 K, x2 = 0.651 | 774.141 | –
305.65 K, x2 = 0.794 | 755.009 | –
305.65 K, x2 = 0.898 | 740.889 | –
305.65 K, x2 = 0.954 | 733.146 | –
308.15 K, x2 = 0 | 851.282 | 1279.8
308.15 K, x2 = 0.047 | 845.927 | 1267.6
308.15 K, x2 = 0.115 | 837.974 | 1249.3
308.15 K, x2 = 0.212 | 826.519 | 1222.5
308.15 K, x2 = 0.304 | 815.538 | 1197.2
308.15 K, x2 = 0.399 | 803.818 | 1170.3
308.15 K, x2 = 0.5 | 791.157 | 1141.6
308.15 K, x2 = 0.601 | 778.273 | 1112
308.15 K, x2 = 0.651 | 771.692 | 1096.4
308.15 K, x2 = 0.794 | 752.457 | 1053.3
308.15 K, x2 = 0.898 | 738.286 | 1021.4
308.15 K, x2 = 0.954 | 730.505 | 1004.8
310.65 K, x2 = 0 | 849.122 | 1269.6
310.65 K, x2 = 0.047 | 843.75 | 1257.3
310.65 K, x2 = 0.115 | 835.768 | 1239.1
310.65 K, x2 = 0.212 | 824.276 | 1212.1
310.65 K, x2 = 0.304 | 813.255 | 1186.8
310.65 K, x2 = 0.399 | 801.494 | 1159.8
310.65 K, x2 = 0.5 | 788.781 | 1130.9
310.65 K, x2 = 0.601 | 775.847 | 1101.1
310.65 K, x2 = 0.651 | 769.237 | 1085.5
310.65 K, x2 = 0.794 | 749.912 | 1042.3
310.65 K, x2 = 0.898 | 735.671 | 1010.1
310.65 K, x2 = 0.954 | 727.852 | 993.4
313.15 K, x2 = 0 | 846.958 | 1259.5
313.15 K, x2 = 0.047 | 841.566 | 1247.2
313.15 K, x2 = 0.115 | 833.56 | 1228.8
313.15 K, x2 = 0.212 | 822.027 | 1201.8
313.15 K, x2 = 0.304 | 810.966 | 1176.3
313.15 K, x2 = 0.399 | 799.161 | 1149.3
313.15 K, x2 = 0.5 | 786.398 | 1120.3
313.15 K, x2 = 0.601 | 773.412 | 1090.2
313.15 K, x2 = 0.651 | 766.771 | 1074.7
313.15 K, x2 = 0.794 | 747.356 | 1031.2
313.15 K, x2 = 0.898 | 733.042 | 998.84
313.15 K, x2 = 0.954 | 725.183 | 981.87
315.65 K, x2 = 0 | 844.792 | 1249.3
315.65 K, x2 = 0.047 | 839.381 | 1237
315.65 K, x2 = 0.115 | 831.348 | 1218.6
315.65 K, x2 = 0.212 | 819.775 | 1191.5
315.65 K, x2 = 0.304 | 808.673 | 1165.9
315.65 K, x2 = 0.399 | 796.825 | 1138.8
315.65 K, x2 = 0.5 | 784.01 | 1109.7
315.65 K, x2 = 0.601 | 770.967 | 1079.5
315.65 K, x2 = 0.651 | 764.3 | 1063.9
315.65 K, x2 = 0.794 | 744.791 | 1020.2
315.65 K, x2 = 0.898 | 730.402 | 987.66
315.65 K, x2 = 0.954 | 722.504 | 970.42
318.15 K, x2 = 0 | 842.622 | 1239.3
318.15 K, x2 = 0.047 | 837.193 | 1226.9
318.15 K, x2 = 0.115 | 829.131 | 1208.5
318.15 K, x2 = 0.212 | 817.518 | 1181.2
318.15 K, x2 = 0.304 | 806.375 | 1155.6
318.15 K, x2 = 0.399 | 794.481 | 1128.3
318.15 K, x2 = 0.5 | 781.614 | 1099.1
318.15 K, x2 = 0.601 | 768.518 | 1068.8
318.15 K, x2 = 0.651 | 761.816 | 1053.1
318.15 K, x2 = 0.794 | 742.213 | 1009.3
318.15 K, x2 = 0.898 | 727.749 | 976.53
318.15 K, x2 = 0.954 | 719.811 | 959.09
320.65 K, x2 = 0 | 840.452 | 1229.3
320.65 K, x2 = 0.047 | 835 | 1216.9
320.65 K, x2 = 0.115 | 826.912 | 1198.3
320.65 K, x2 = 0.212 | 815.256 | 1171
320.65 K, x2 = 0.304 | 804.075 | 1145.3
320.65 K, x2 = 0.399 | 792.132 | 1118
320.65 K, x2 = 0.5 | 779.21 | 1088.6
320.65 K, x2 = 0.601 | 766.061 | 1058.2
320.65 K, x2 = 0.651 | 759.325 | 1042.4
320.65 K, x2 = 0.794 | 739.628 | 998.4
320.65 K, x2 = 0.898 | 725.085 | 965.42
320.65 K, x2 = 0.954 | 717.105 | 947.81
323.15 K, x2 = 0 | 838.289 | 1219.5
323.15 K, x2 = 0.047 | 832.812 | 1207
323.15 K, x2 = 0.115 | 824.696 | 1188.4
323.15 K, x2 = 0.212 | 813.002 | 1161.1
323.15 K, x2 = 0.304 | 801.776 | 1135.1
323.15 K, x2 = 0.399 | 789.785 | 1107.7
323.15 K, x2 = 0.5 | 776.809 | 1078.2
323.15 K, x2 = 0.601 | 763.606 | 1047.7
323.15 K, x2 = 0.651 | 756.839 | 1031.9
323.15 K, x2 = 0.794 | 737.044 | 987.59
323.15 K, x2 = 0.898 | 722.414 | 954.46
323.15 K, x2 = 0.954 | 714.398 | 936.68
